{
  "source": "patent US9896512B2",
  "about": "“Antitumor peptide derived from a complementarity determining region of a humanized monoclonal antibody to NAP12B transporter” (Recepta Biopharma S.A., priority 2010, dated 2018)",
  "key": {"B16F10-Nex2 cells": {"test_system": "B16F10-Nex2 cells", "assay": "Tumor cell invasion through Matrigel (Transwell)", "assay_type": "cell-based, murine", "parameters": "inhibition of cell invasion: dose or concentration left out as unconfirmed", "details": "24 hours", "procedure": "[…] As a chemoattractant, 10% FCS in RPMI was used in the transwell lower chamber. After 24 hours at 37° C. in humidified atmosphere with 5% CO2, non-invasive cells were excluded with a swab, and cells that crossed the membrane were fixed with methanol and stained with Giemsa. Cells were counted in each transwell membrane, and the numbers of invasive cells are expressed as percentages."}, "[1]": {"test_system": "melanoma B16F10-Nex2 cells", "assay": "Alanine scanning series cell adhesion assay (MTT after trypsin-EDTA)", "assay_type": "cell-based, murine", "details": "1 mM peptide, 24 hours", "procedure": "The peptide RB10 (SEQ ID NO: 9) was engineered to replace each amino acid by alanine using Ala-scan methodology, and thus help evaluate the role of each amino acid on biological effect, specifically on the hyper-adherence observed with 1 mM peptide.\nFor this purpose, viable melanoma B16F10-Nex2 cells (1×10^4)/well were distributed on a 96-well culture plate and incubated for 4 hours. Fresh media containing 1 mM of the alanine-scanning series for RB10 was added and incubated for 24 hours. Treated cells were detached with 30 μl/well of trypsin-EDTA for five minutes at 37° C. and gently washed with PBS. Cells were incubated for 4 hours with 0.5 mg/mL of MTT [3-(4,5-Dimethylthiazol-2-yl)-2,5-diphenyltetrazolium bromide] in fresh media and the formazan crystals were solubilized adding 1 volume of a 10% SDS solution overnight. Intensity was measured using a plate reader at 570 nm. […] The 100% value for each peptide represented the treated cells that had not been trypsinized."}},
  "note": "No end group written: not given here.",
  "data": [
    {"compound": "C[C@@H]1NC(=O)[C@H](CCCNC(=N)N)NC(=O)[C@H](C)NC(=O)[C@H]([C@@H](C)O)NC(=O)[C@H](CCC(=O)O)NC(=O)CNC(=O)[C@H](CCCNC(=N)N)NC(=O)[C@H](C)NC(=O)[C@@H](N)CSSC[C@@H](C(N)=O)NC(=O)CNC(=O)[C@H](CCC(N)=O)NC(=O)CNC(=O)[C@H](Cc2c[nH]c3ccccc23)NC(=O)[C@H](Cc2ccc(O)cc2)NC(=O)[C@H](C)NC(=O)[C@H](Cc2ccccc2)NC(=O)[C@H]([C@@H](C)O)NC1=O", "note": "[RB9, CARGETARATFAYWGQGC-NH2]", "values": [
      {"measurement": "inhibition of cell invasion", "setting": "B16F10-Nex2 cells", "value": 60, "unit": "%"},
      {"measurement": "inhibition of cell invasion through Matrigel, dose dependence", "setting": "B16F10-Nex2 cells; 10% FCS chemoattractant", "value": "dose-dependent inhibition"}
    ]},
    {"compound": "CARGETARATFAYWGQG-NH2 [RB10, CARGETARATFAYWGQG-NH2]", "values": [
      {"measurement": "trypsin/EDTA-resistant cell adherence", "setting": "[1]", "value": "high trypsin/EDTA-resistant cell adherence"}
    ]}
  ]
}
